# Data as given in publication PMC3340335, “Differential Scanning Fluorometry Signatures as Indicators of Enzyme Inhibitor Mode of Action: Case Study of Glutathione S-Transferase” (PLoS ONE, 2012).
# Like-named read-outs stand apart in the source and are kept apart here.
# Columns and labels:
# SjGST [1] = target: T1, SjGST (Schistosoma japonicum, UniProt P08515); assay: biochemical; type: binding; conditions: for ΔTm at 200 µM / Difference in thermal shift between GSH-present (2 mM) and GSH-absent curves at top compound concentration: 200 µM compound; for ΔTm at 200 µM / Difference in thermal shift between GSH-present (2 mM) and GSH-absent curves across compound concentrations / Difference in thermal shift between GSH-present (2 mM) and GSH-absent curves at top compound concentration: 2 mM GSH versus no GSH; for ΔTm at 200 µM: read-out: Difference in thermal shift between GSH-present (2 mM) and GSH-absent curves at top compound concentration; for Thermal shift (ΔTm versus vehicle control) of SjGST: absence of GSH, top compound concentration, 200 µM, 1 µM SjGST; for Difference in thermal shift between GSH-present (2 mM) and GSH-absent curves across compound concentrations: across all concentrations up to 200 µM
# T1 construct: purchased GenScript (Piscataway, NJ)
# Description: Compounds were diluted (1∶2, 7-points) in DMSO row-wise down to 10 µM in a 96-well polypropylene round bottom mother plate, with DMSO alone in the first column of each plate. […] The PCR plates were centrifuged at 1000 rpm for 10 s to ensure good mixing, and sealed with Optical-Quality Sealing Tape (Bio-Rad). […] The mid temperature of the protein thermal melt profiles, Tm, was determined using EXCEL-based custom calculation software available at (ftp://ftp.sgc.ox.ac.uk/pub/biophysics), and fitting of the data to the Boltzmann equation was performed using GraphPad Prism 4. The differences in Tm between vehicle control and compound-containing samples were calculated as thermal shift.
# SjGST [2] = target: T1, SjGST; assay: SjGST luciferase-coupled luminescence enzymatic assay (PBI 1155 substrate, 100 µM GSH); type: biochemical; conditions: for inhibition at 58 µM: read-out: % Inhibition at 58 μM against SjGST
# Description: Compound inhibitory activities were evaluated using a previously reported GST enzymatic assay. Three µl of reagents (5 nM final concentration of SjGST (or buffer serving as a no-enzyme control) plus 100 µM final concentration of GSH) were dispensed into 1536-well Greiner white solid-bottom assay plates. Compounds (23 nL) were transferred via Kalypsys pintool equipped with 1,536-pin array. The plates were incubated at room temperature for 15 min before the addition of 20 µM substrate PBI 1155 to initiate the reaction. The plates were centrifuged at 1000 rpm for 15 s and incubated at room temperature for 40 min before the addition 4 µl luciferin detection reagent followed by another 15-s centrifugation at 1000 rpm and 15-min incubation. The plates were then read on ViewLux high-throughput CCD imager (PerkinElmer, Waltham, MA) with a clear emission filter and under standard luminescence settings. Percent inhibition was calculated based on the enzyme-containing and no-enzyme controls using Excel and GraphPad Prism 4.
# hGST M1-1 = target: T2, hGST M1-1 (Homo sapiens, UniProt P09488); assay: Thermal shift assay (DSF) with hGST M1-1; type: binding; conditions: concentration-response, Fig. 7D-F
# T2 construct: purchased Oxford Biomedical Research (Oxford, MI)
# T2 sequence (P09488 1-218): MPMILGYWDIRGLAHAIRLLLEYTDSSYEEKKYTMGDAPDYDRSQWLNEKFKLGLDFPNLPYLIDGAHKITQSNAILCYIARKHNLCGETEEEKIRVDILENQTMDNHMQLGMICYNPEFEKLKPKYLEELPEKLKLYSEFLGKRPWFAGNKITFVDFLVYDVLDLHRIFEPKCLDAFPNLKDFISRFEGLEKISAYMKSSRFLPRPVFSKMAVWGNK
# Description: (§1) Compounds were diluted (1∶2, 7-points) in DMSO row-wise down to 10 µM in a 96-well polypropylene round bottom mother plate, with DMSO alone in the first column of each plate. […] The PCR plates were centrifuged at 1000 rpm for 10 s to ensure good mixing, and sealed with Optical-Quality Sealing Tape (Bio-Rad). The plates were subsequently heated approximately 2 min after sample mixing, on an iQ5 thermal cycler at intervals of 1°C from 20 to 95°C, with a ramping rate of 6°C min^−1. The set-up of the filter configurations was customized to accommodate the optimal excitation and emission wavelengths for SYPRO Orange (Ex: 490/Em: 575 nm). The mid temperature of the protein thermal melt profiles, Tm, was determined using EXCEL-based custom calculation software available at (ftp://ftp.sgc.ox.ac.uk/pub/biophysics), and fitting of the data to the Boltzmann equation was performed using GraphPad Prism 4. The differences in Tm between vehicle control and compound-containing samples were calculated as thermal shift.
# (§2) The study was subsequently extended to human GST isozymes by testing one representative compound from each category against hGST A1 and M1 (hGST P1 was not pursued due to the protein's lack of clear melt transition, data not shown).
# hGST A1-1 = target: T3, hGST A1-1 (Homo sapiens, UniProt P08263); assay: Thermal shift assay (DSF) with hGST A1-1; type: binding; conditions: concentration-response, Fig. 7A-C
# T3 construct: purchased Oxford Biomedical Research (Oxford, MI)
# T3 sequence (P08263 1-222): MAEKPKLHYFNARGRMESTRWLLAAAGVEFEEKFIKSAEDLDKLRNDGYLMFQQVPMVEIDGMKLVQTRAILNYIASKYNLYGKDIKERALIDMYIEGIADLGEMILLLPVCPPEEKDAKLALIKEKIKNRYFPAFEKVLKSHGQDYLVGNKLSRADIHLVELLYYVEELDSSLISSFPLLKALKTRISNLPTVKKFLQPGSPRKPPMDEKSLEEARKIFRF
# Description: as §1, §2
# [3] = 5 nM SjGST, 100 µM GSH, 20 µM PBI 1155, read-out: IC50 against SjGST
# T1 sequence (P08515 whole entry): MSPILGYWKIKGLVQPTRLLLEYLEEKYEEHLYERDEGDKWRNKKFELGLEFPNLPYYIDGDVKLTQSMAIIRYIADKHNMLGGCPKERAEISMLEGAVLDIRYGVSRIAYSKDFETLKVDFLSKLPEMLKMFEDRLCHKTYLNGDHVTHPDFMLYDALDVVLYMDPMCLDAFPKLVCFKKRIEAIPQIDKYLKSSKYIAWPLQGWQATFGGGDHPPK
structure (smiles),measurement,setting,value
NC(CCC(=O)NC(CSc1ccc(C(=O)OCCOCCOCCOCCOC(=O)c2ccc(SCC(NC(=O)CCC(N)C(=O)O)C(=O)NCC(=O)O)c([N+](=O)[O-])c2)cc1[N+](=O)[O-])C(=O)NCC(=O)O)C(=O)O (stereo not shown) [Bis-(NB-GS)],ΔTm at 200 µM,SjGST [1],1.2 °C
same,Thermal shift (ΔTm versus vehicle control) of SjGST,SjGST [1],11.1 °C
same,IC50,SjGST [2]; [3],0.67 µM
same,Fold greater inhibitory potency of Bis-(NB-GS) versus NBD-GS,"SjGST [2]; ratio of IC50 values, 0.67 µM versus 2.3 µM",over 3 fold
"C=C(CC)C(=O)c1ccc(OCC(=O)O)c(Cl)c1Cl [Ethacrynic acid, ethacrynic acid]",Glutathione-dependency trend of thermal shift curves (with versus without 2 mM GSH),hGST M1-1,diverging trend
same,Glutathione-dependency trend of thermal shift curves (with versus without 2 mM GSH),hGST A1-1,diverging trend
same,ΔTm at 200 µM,SjGST [1],11.5 °C
same,Thermal shift (ΔTm versus vehicle control) of SjGST,SjGST [1],1.8 °C
same,IC50,SjGST [2]; [3],0.14 µM
"N[C@@H](CCC(=O)N[C@@H](CS)C(=O)NCC(=O)O)C(=O)O [GSH, γ-Glu-Cys-Gly]",ΔTm at 2000 µM,"SjGST [1]; 2 mM GSH, at low compound concentrations, read-out: Enhancement in thermal shift baseline due to GSH",~4 °C
"O=c1c(O)c(-c2cc(O)c(O)c(O)c2)oc2cc(O)cc(O)c12 [Myricetin, myricetin]",Thermal shift (ΔTm versus vehicle control) of SjGST,SjGST [1],over 3 °C
same,Difference in thermal shift between GSH-present (2 mM) and GSH-absent curves across compound concentrations,SjGST [1],approximately 4 °C
same,IC50,SjGST [2],6.6 µM
O=[N+]([O-])c1ccc(SCCCCCCCCO)c2nonc12 [NBD-8-OH],ΔTm at 200 µM,SjGST [1],10.5 °C
same,Thermal shift (ΔTm versus vehicle control) of SjGST,SjGST [1],failed to display any significant thermal stabilization effect
same,IC50,SjGST [2]; [3],0.66 µM
NC(CCC(=O)NC(CSc1ccc([N+](=O)[O-])c2nonc12)C(=O)NCC(=O)O)C(=O)O (stereo not shown) [NBD-GS],ΔTm at 200 µM,SjGST [1],4 °C
same,Thermal shift (ΔTm versus vehicle control) of SjGST,SjGST [1],5.9 °C
same,IC50,SjGST [2]; [3],2.3 µM
"O=c1c(O)c(-c2ccc(O)c(O)c2)oc2cc(O)cc(O)c12 [Quercetin, quercetin]",Glutathione-dependency trend of thermal shift curves (with versus without 2 mM GSH),hGST M1-1,parallel trend
same,Glutathione-dependency trend of thermal shift curves (with versus without 2 mM GSH),hGST A1-1,parallel trend
same,Thermal shift (ΔTm versus vehicle control) of SjGST,SjGST [1],over 3 °C
same,Difference in thermal shift between GSH-present (2 mM) and GSH-absent curves across compound concentrations,SjGST [1],approximately 4 °C
same,IC50,SjGST [2]; [3],5 µM
"CCCCSC[C@H](NC(=O)CC[C@H](N)C(=O)O)C(=O)NCC(=O)O [S-butyl GSH, S-butyl glutathione]",Difference in thermal shift between GSH-present (2 mM) and GSH-absent curves at top compound concentration,SjGST [1],1.8 °C
same,inhibition at 58 µM,SjGST [2],35%
"CCCCCCSC[C@H](NC(=O)CC[C@H](N)C(=O)O)C(=O)NCC(=O)O [S-hexyl GSH, S-hexyl glutathione]",Difference in thermal shift between GSH-present (2 mM) and GSH-absent curves at top compound concentration,SjGST [1],1.8 °C
same,inhibition at 58 µM,SjGST [2],58%
"CSC[C@H](NC(=O)CC[C@H](N)C(=O)O)C(=O)NCC(=O)O [S-methyl GSH, S-methyl glutathione]",Thermal shift (ΔTm versus vehicle control) of SjGST,SjGST [1],< 2 °C
same,Inhibition of SjGST at concentrations up to 200 µM,SjGST [2]; tested up to 200 µM,did not show detectable inhibition
"CCCCCCCCSC[C@H](NC(=O)CC[C@H](N)C(=O)O)C(=O)NCC(=O)O [S-octyl GSH, S-octyl glutathione]",Glutathione-dependency trend of thermal shift curves (with versus without 2 mM GSH),hGST M1-1,converging trend
same,Glutathione-dependency trend of thermal shift curves (with versus without 2 mM GSH),hGST A1-1,converging trend
same,Difference in thermal shift between GSH-present (2 mM) and GSH-absent curves at top compound concentration,SjGST [1],0.45 °C
same,inhibition at 58 µM,SjGST [2],83%
